# Assay results reported in US20050215609A1, “Novel uses of prostaglandin d2, prostaglandin d2 agonist and prostaglandin d2 antagonist” (priority 2002, published 2005).
# Structures can show the parent of a compound that is named as a salt.
# Columns and labels:
# Male ddY mice [1] = experiment: Anorexigenic action of PGD2 antagonist, food intake of mice after ICV administration (Experiment 3 (1)); format: in vivo; settings: BW A868C 0.72 and 7.2 μg/mouse
# Experimental: (§1) The weight of food pellets was measured before and after ICV injection and cumulative food intake was calculated.
# The PGD2 antagonist used in Experiment 2, i.e., (±) 3-benzyl-5-(6-carboxyhexyl)-1-(2-cyclohexyl-2-hydroxyethylamino)hydantoin (BW A868C, Sigma-Aldrich), was used to investigate anorexigenic action in mice. The compound was administered to mice via ICV injection (0.72 and 7.2 μg/mouse) as described in Experiment 1, and the food intake was compared with the group that received the vehicle (ACSF).
# PGD2 receptor = target: T1, PGD2 receptor (Mus musculus, UniProt P70263); experiment: Effect of PGD2 antagonist on the orexigenic action of PGD2, combined ICV administration (Experiment 2); format: in vivo; settings: mice, two hours after administration
# T1 construct: injected into the third cerebral ventricle; from tissue; host or cells: living ddY mouse, brain (ICV injection into the third cerebral ventricle)
# T1 sequence (P70263 1-357): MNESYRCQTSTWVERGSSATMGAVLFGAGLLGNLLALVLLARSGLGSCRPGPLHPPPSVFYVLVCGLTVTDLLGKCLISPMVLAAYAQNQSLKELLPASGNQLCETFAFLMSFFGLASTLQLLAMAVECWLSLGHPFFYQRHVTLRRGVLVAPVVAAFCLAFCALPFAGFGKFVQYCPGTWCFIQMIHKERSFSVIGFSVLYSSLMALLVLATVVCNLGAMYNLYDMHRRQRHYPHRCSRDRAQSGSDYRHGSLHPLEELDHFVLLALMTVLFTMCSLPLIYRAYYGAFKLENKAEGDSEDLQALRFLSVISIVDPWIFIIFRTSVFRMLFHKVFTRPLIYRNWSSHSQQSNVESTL
# Experimental: as §1
# (§2) Values were expressed as the mean ± SEM. Analysis of variance (ANOVA) followed by Bonferroni's t-test was used to assess differences among groups. P values less than 0.05 were considered significant.
# The groups, one of which was administered PGD2 alone and the other received combined administration of PGD2/PGD2 antagonist, were used to investigate the effect of PGD2 antagonist on the orexigenic action of PGD2. PGD2 antagonist, (±) 3-benzyl-5-(6-carboxyhexyl)-1-(2-cyclohexyl-2-hydroxyethylamino)hydantoin (BW A868C, Sigma-Aldrich) was used.
# [2] = Changes in body weight of fasted SD rat after ICV administration (Experiment 3 (2), Table 1); format: in vivo; settings: SD rat fasted 24 hours, 100 μg
# Experimental: (§3) The PGD2 antagonist, (Z)-7-[(1R,2R,3S,5S)]-2-(5-hydroxybenzo[b]thiophene-3-ylcarbonylamino)-10-norpinane-3-yl]heptan-5-enonic acid (formula IA-a1) was used to investigate anorexigenic action […]. The sodium salt of this compound was administered to SD rat, fasted for 24 hours, via ICV injection as described above (dosage: 0.1, 1, 10, 100 μg/rat), and the food intake was compared with the group that received vehicle (5% DMSO in saline).
# SD rat [3] = experiment: Cumulative food intake of SD rat after intraperitoneal administration (Experiment 3 (2), Table 2); format: in vivo; settings: i.p., 30 mg/kg
# Experimental: as §1, §2
# Also, another group of SD rat was administered the test compound via intraperitoneal administration (30 mg/kg) and the food intake was compared with the group that received vehicle (5% DMSO in saline).
# SD rat [4] = experiment: Cumulative food intake of fasted SD rat after ICV administration (Experiment 3 (2), Table 1); format: in vivo; settings: SD rat fasted 24 hours, 100 μg
# Experimental: as §1, §2, §3
# Male ddY mice [5] = experiment: Food intake of mice after ICV administration of PGD2 (Experiment 1); format: in vivo, mouse
# Experimental: as §1, §2
compound,measurement,setting,value
"O=C(O)CCCCCCC1C(=O)N(Cc2ccccc2)C(=O)N1NCC(O)C1CCCCC1 (racemic) [BW A868C, (±)-3-benzyl-5-(6-carboxyhexyl)-1-(2-cyclohexyl-2-hydroxyethylamino)hydantoin]",food intake compared to vehicle,Male ddY mice [1],inhibition of food intake was observed
same,effect on the orexigenic action of PGD2 (food intake),PGD2 receptor,inhibited the orexigenic action of PGD2 completely
CC1(C)C2CC1[C@H](NC(=O)c1csc3ccc(O)cc13)[C@@H](C/C=C\CCCC(=O)O)C2 (some centres unmarked) [Compund (IA-a1) (Na salt)],Changes in body weght (g) 1 hr.,[2]; 1 hr.,0.89 ± 0.79 g
same,Changes in body weght (g) 2 hr.,[2]; 2 hr.,2.89 ± 1.28 g
same,Changes in body weght (g) 4 hr.,[2]; 4 hr.,1.07 ± 1.47 g
same,Changes in body weght (g) 24 hr.,[2]; 24 hr.,7.20 ± 2.60 g
same,Cululative Food intake (g) 1 hr.,SD rat [3]; 1 hr.,2.38 ± 0.41 g
same,Cululative Food intake (g) 2 hr.,SD rat [3]; 2 hr.,4.30 ± 0.67 g
same,Cululative Food intake (g) 4 hr.,SD rat [3]; 4 hr.,7.85 ± 0.66 g
same,Cululative Food intake (g) 24 hr.,SD rat [3]; 24 hr.,32.05 ± 1.09 g
same,Cululative Food intake (g) 1 hr.,SD rat [4]; 1 hr.,5.18 ± 0.47 g
same,Cululative Food intake (g) 2 hr.,SD rat [4]; 2 hr.,6.15 ± 0.50 g
same,Cululative Food intake (g) 4 hr.,SD rat [4]; 4 hr.,6.86 ± 0.49 g
same,Cululative Food intake (g) 24 hr.,SD rat [4]; 24 hr.,25.71 ± 1.30 g
"CCCCC[C@H](O)/C=C/[C@H]1C(=O)C[C@H](O)[C@@H]1C/C=C\CCCC(=O)O [PGD2, prostaglandin D2]",food intake versus control group,"Male ddY mice [5]; 0.2 μg PGD2/mouse, 60 and 120 min after the injection",significant increase in food intake
same,food intake versus control group,"Male ddY mice [5]; 2 μg PGD2/mouse, 60 and 120 min after the injection",significant increase in food intake
same,food intake versus control group,Male ddY mice [5]; 20 μg PGD2/mouse,"the food intake was temporally inhibited shortly after the injection, but the food intake was increased thereafter"
